Experimental data as given in patent publication US20260133182A1, “METHOD OF DETERMINING FUSOGENIC POTENTIAL OF SPERM AND USE THEREOF IN ASSISTED FERTILIZATION AND DRUG SCREENING” (Technion Research & Development Foundation Limited, priority 2023, published 2026).

Tested on: BHK cells expressing JUNO co-incubated with capacitated mouse sperm
Test: Sperm-to-BHK fusion and multinucleation
Assay type: cell-based, hamster
Conditions: JUNO-transfected BHK cells + mouse sperm
Method: In this study, the present inventors used BHK cells (Cat #CCL-10; ATCC, RRID: CVCL_1915) which were grown and maintained in DMEM containing 10% FBS. Cells were cultured at 37° C. in 5% CO2. Plasmids were transfected into cells using 2 μl jetPRIME (PolyPlus-transfection) per μg of DNA in 100 μl of reaction buffer for every ml of medium.
Sperm were recovered by incising the cauda epididymis, obtained from adult male mice, in 300 μl of mHTF medium (Kito et al. 2004) supplemented with 4 mg/ml of BSA. The sperm were diluted in fresh medium to a concentration of 5×10^6 cells/ml and incubated for 90 min at 37° C. and 5% CO2 to induce capacitation.
BHK cells were grown on 24-well glass bottom tissue-culture plates. 24 h after plating, cells were transfected with 0.25 μg pcDNA 3.1 -EGFP-MBD-nls plasmids and 0.5 μg of either pCI::H2B-RFP or pCI::JUNO::H2B-RFP. […] Multinucleation percentage was determined as the ratio between the number of nuclei in multinucleated cells (NuM) and the total number of nuclei fluorescent cells (NuF), as follows: % of multinucleation=(NuM/NuF)×100. 500 nuclei (NuF) were counted in each independent repetition (experimental point). In some cases, the number of sperm fused was determined by evaluating the transfer of EGFP-MBD-nls signal from the BHK cell to the sperm nuclei (number of fused sperm/500 BHK cells). […]

| SMILES | multinucleation (% of multinucleation) (20 μM FdUdr) | levels of multinucleation (% of multinucleation) (4 h, 200 μg/ml cycloheximide vs control) |
| --- | --- | --- |
| O=c1[nH]c(=O)n([C@H]2C[C@H](O)[C@@H](CO)O2)cc1F [FdUdr, 5-fluoro-2′-deoxyuridine] | does not inhibit | – |
| C[C@@H]1C[C@@H]([C@H](O)CC2CC(=O)NC(=O)C2)C(=O)[C@@H](C)C1 [cycloheximide] | – | no differences |
